What all share (type): biochemical
Assay [1] concerns the target T1, FIH (Homo sapiens, UniProt Q9NWT6).
T1 construct: Full-length recombinant FIH, two- and three-consensus ankyrin repeats (2CA and 3CA) were produced as described; His6 (cleaved yes); made in house; host or cells: Escherichia coli BL21(DE3)
Kind of assay: Rapid quench-flow, FIH pre-steady-state product and succinate formation. The following applies: for Rapid quench-flow kproduct / Rapid quench-flow ksuccinate: 0.5 mM apo-FIH, 0.4 mM Fe(II), 5 mM 2OG, 1 mM substrate, 50 mM HEPES pH 7.5, O2-saturated buffer 1:1, 5 °C, quenched with 1% CF3CO2H; for Rapid quench-flow kproduct: hydroxylation by MALDI-TOF-MS, 1–3 separate experiments; for Rapid quench-flow ksuccinate: succinate by LC-MS. As for the experimental part:
Rapid quench-flow experiments were performed using the same conditions and preparation of the assay mixture as used in stopped-flow experiments. Rapid quench-flow equipment (TgK Scientific Ltd.) in an anaerobic glove box was used for the experiments. Samples were quenched with 1% CF3CO2H and analyzed using MALDI-TOF-MS (peptide hydroxylation) as described above or liquid chromatography-mass spectrometry (LC-MS, for succinate production). For LC-MS, chromatographic separation was performed at 50 °C using a Waters ACQUITY BEH Amide 1.7-μm, 2.1 × 100-mm column on a Waters ACQUITY^TM ultraperformance liquid chromatography system (Waters Corp., Milford, MA). The following eluents were used: mobile phase A: 10% H2O, 90% acetonitrile (v/v), 10 mM ammonium formate; mobile phase B: 50% H2O, 50% acetonitrile (v/v), 10 mM ammonium formate. The elution gradient was 0–7.0 min linear from 10 to 30% B, and 7.0–9.0 min at 10% B for re-equilibration of the column. A constant flow rate of 0.4 ml/min was used. Analytes were detected in negative ionization mode using single reaction monitoring on a Quattro triple quadrupole mass spectrometer (Waters) with a cone voltage of 15 V and a capillary voltage of 3.0 kV. The desolvation temperature was set to 250 °C, and the source temperature was set to 120 °C.
FIGURE 9. Rapid quench-flow experiments showing FIH-catalyzed hydroxylation of HIF-1/2α CAD and ARD substrates. Reaction mixtures containing anaerobic 0.5 mM apo-FIH, 0.4 mM Fe(II), 5 mM 2OG, 1 mM peptide in HEPES 50 mM (pH 7.5) were rapidly mixed with O2-saturated buffer at 5 °C in a 1:1 ratio and then quenched with 1% CF3CO2H at defined time points. The data were fitted with the function, y = a·(1 − exp(−bx)) + c. Hydroxylation levels were assessed by MALDI-TOF-MS. A, hydroxylation of HIF-1α CAD, 1CA, and tankyrase-1 peptide substrates (19- and 20-mers); B, hydroxylation of HIF-1α, HIF-2α, and tankyrase-1 35-mer peptide substrates; C, hydroxylation of 1CA, 2CA, and 3CA. Data plotted were cumulatively acquired over the course of 1–3 separate experiments.

Assay [2] has as its target T1, FIH. In words: O2 dependence of FIH-catalyzed hydroxylation (hypoxia workstation). The following applies: FIH with the named substrate; 5 μM FIH, 500 μM peptide, 50 μM Fe(II), 1 mM 2OG, 1 mM L-ascorbate, 50 mM HEPES pH 7.5, 37 °C, hypoxia workstation at different pO2; triplicate assays. Here is the method:
(§1) The O2 dependence of FIH-catalyzed reactions was determined by conducting enzymatic assays in an “In vivo 500 Hypoxia Workstation” (Ruskinn) using buffers pre-equilibrated under different pO2 values for 24 h. The O2 dependence of PHD2-catalyzed reactions was determined by conducting enzymatic assays in sealed glass vials with variable N2/O2 contents ([42]). Reactions were stopped by spotting samples onto a matrix-assisted laser desorption/ionization-time of flight mass spectrometry (MALDI-TOF-MS) target plate and immediately mixing with α-cyano-4-hydroxycinnamic acid matrix. Hydroxylation levels were assessed by MALDI-TOF-MS as described ([46]).
FIGURE 4. O2 dependence of FIH- and PHD2-catalyzed hydroxylation of HIF-1/2α. A, O2 dependence of PHD2-catalyzed hydroxylation of HIF-1/2α CODD/NODD 19-mer peptides. 4 μM PHD2, peptide (varied), 50 μM Fe(II), 2OG (varied), 4 mM L-ascorbate in HEPES 50 mM (pH 7.5) were incubated at 37 °C. The different O2 levels were maintained using mass flow controllers ([42]), and the hydroxylation levels were analyzed by MALDI-TOF-MS. B, O2 dependence of FIH-catalyzed hydroxylation of CAD HIF-1/2α 35-mer peptides. Conditions were as follows. 5 μM FIH, 500 μM peptide, 50 μM Fe(II), 1 mM 2OG, 1 mM L-ascorbate in HEPES 50 mM (pH 7.5) were incubated at 37 °C in a hypoxia work station under different pO2. […] Error bars, S.D. of triplicate assays.
FIGURE 8. Time course and O2 dependence of the FIH-catalyzed hydroxylation of HIF-α CAD and ARD substrates. Conditions were as follows. 5 μM FIH, 500 μM peptide, 50 μM Fe(II), 1 mM 2OG, 1 mM L-ascorbate in HEPES 50 mM (pH 7.5) were incubated at 37 °C. For O2 dependence studies, reactions were carried out in a hypoxic work station under different pO2 (assays at >20% O2 conducted using mass flow controllers ([42])). The different hydroxylation levels were analyzed by MALDI-TOF-MS or by LC-MS (for 2CA and 3CA). […] Error bars, S.D. of triplicate assays. A, time course of consensus ARD substrate hydroxylation (tankyrase-1 (tnkrs-1 20-mer and 35-mer) and one-consensus ankyrin repeat 20-mer (1CA)). B, time course of ARD peptide hydroxylation (one-consensus ankyrin repeat 20-mer (1CA), two ankyrin repeats (2CA), and three ankyrin repeats (3CA)). C, O2 dependence of HIF-1/2α CAD, 1CA, and tnkrs-1_35-mer hydroxylation. D, O2 dependence of 1CA, 2CA, and 3CA hydroxylation.

The target of assay [3] is T1, FIH. Kind of assay: Stopped-flow UV-visible spectroscopy, FIH·Fe(II)·2OG·substrate + O2. The following applies: anaerobic 0.5 mM FIH, 1 mM substrate, 5 mM 2OG, 0.4 mM Fe(II), 50 mM HEPES pH 7.5, mixed 1:1 with O2-saturated buffer at 5 °C; double exponential fit. As for the experimental part:
Stopped-flow UV-visible spectroscopy experiments were performed as described previously ([32], [42]). Anerobically prepared assay mixtures containing 0.5 mM apo-FIH, 1 mM substrate, 5 mM 2OG, 0.4 mM Fe(II) or 0.8 mM apo-PHD2, 1 mM substrate, 5 mM 2OG, 0.5 mM Fe(II) were rapidly mixed with O2-free/O2-saturated buffer. The reaction was observed over 1000 s using a photodiode array detector, and kinetic traces were analyzed using Origin version 8.51 software. Data were fitted with a double exponential function (y = A1 × exp(−kriset) + A2 × exp(−kfallt) + y0). The A1, A2, and y0 parameters were restricted with upper limits to match the observed amplitude/offset changes.
Kinetic traces were fitted using a double exponential function; the fitting parameters of intermediate formation and decay are summarized in Table 3.
FIGURE 10. Stopped-flow UV-visible absorbance changes upon FIH-catalyzed hydroxylation of HIF-1/2α CAD and ARD substrates. Reaction mixtures containing anaerobic 0.5 mM apo-FIH, 0.4 mM Fe(II), 5 mM 2OG, and 1 mM peptide in HEPES 50 mM (pH 7.5) were rapidly mixed with O2-saturated buffer at 5 °C in 1:1 ratio and analyzed using a photodiode array detector. The data were fitted with a double exponential function. A, decay at 500 nm (representing enzyme·substrate complex depletion) observed upon FIH-catalyzed hydroxylation of ARD substrates compared with HIF-1/2α CAD. B, formation and degradation of 310 nm species observed upon FIH-catalyzed HIF-1/2α CAD and ARD hydroxylation. C, decay at 500 nm observed upon FIH-catalyzed hydroxylation of 1CA, 2CA, and 3CA substrates.

For assay [4], the target named is T1, FIH. In words: Steady-state kinetics of FIH-catalyzed peptide/protein hydroxylation (MALDI-TOF-MS or LC-MS). The following applies: 50 μM Fe(II), 1 mM L-ascorbate, 50 mM HEPES pH 7.5, 37 °C; for Km: 0.1–5 μM FIH, MALDI-TOF-MS (LC-MS for 2CA, 3CA), triplicate assays. As for the experimental part:
Enzymatic assays were conducted as described ([46], [47]). Unless otherwise stated, the assay mixture typically contained 5 μM FIH, 500 μM substrate, 500 μM 2OG, 1 mM L-ascorbate, and 50 μM Fe(NH4)2(SO4)2 or 4 μM PHD2, 100 μM substrate, 300 μM 2OG, 4 mM L-ascorbate, and 50 μM Fe(NH4)2(SO4)2. For HIF-1α CODD19-mer, the background levels of methionine oxidation resulting from assay conditions were subtracted based on non-enzymatic controls ([48]).
as §1
Samples obtained from FIH kinetic assays with 2CA and 3CA were diluted to a substrate concentration of 5 μM and then analyzed using a Waters® LCT Classic mass spectrometer by electrospray ionization in positive ion mode. An Agilent HP1100 LC system was used, and samples were run through a Phenomenex® Aeris Widepore 3.6-μm XB-C8 150 × 2.1-mm column at 0.5 ml/min in a gradient of phase A (95% H2O, 5% CH3CN, 0.01% formic acid) to phase B (95% CH3CN, 5% H2O, 0.01% formic acid). The LC/MS used the following method: 0–1.5 min, 100% A and then 1.5–12 min linear gradient from 0 to 100% B, 12–14 min 100% B, and 15.0–19.0 min 100% A for re-equilibration of the column. Data were collected and analyzed using MassLynx version 4.0.

A further assay deals with T2, PHD2 (Homo sapiens, UniProt Q9GZT9).
T2 construct: The catalytic domain of PHD2 (residues 181–426) was purified as described; made in house
T2 sequence (Q9GZT9 181-426): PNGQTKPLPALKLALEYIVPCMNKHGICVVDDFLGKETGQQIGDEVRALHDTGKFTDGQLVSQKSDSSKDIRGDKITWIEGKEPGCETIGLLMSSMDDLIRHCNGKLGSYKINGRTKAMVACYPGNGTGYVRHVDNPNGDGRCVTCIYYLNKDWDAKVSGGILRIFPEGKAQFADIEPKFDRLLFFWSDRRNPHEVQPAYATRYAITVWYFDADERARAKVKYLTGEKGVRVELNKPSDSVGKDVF
Kind of assay: Stopped-flow UV-visible spectroscopy, PHD2·Fe(II)·2OG·substrate + O2. The following applies: anaerobic 0.8 mM PHD2, 1 mM peptide, 5 mM 2OG, 50 mM HEPES pH 7.5, mixed 1:1 with O2-saturated buffer at 5 °C; double exponential fit; traces average of triplicate. As for the experimental part:
Stopped-flow UV-visible spectroscopy experiments were performed as described previously ([32], [42]). […] The reaction was observed over 1000 s using a photodiode array detector, and kinetic traces were analyzed using Origin version 8.51 software. Data were fitted with a double exponential function (y = A1 × exp(−kriset) + A2 × exp(−kfallt) + y0). The A1, A2, and y0 parameters were restricted with upper limits to match the observed amplitude/offset changes.
Previously reported pre-steady-state kinetic studies on PHD2 focused on its reaction with CODD HIF-1α 19-mer peptide ([38], [42]); there is no reported information on the rates of PHD2 reaction with O2 in the presence of NODD HIF-1α or HIF-2α substrates. To ascertain whether a slow reaction with O2 under pre-steady-state conditions is common to PHD2-catalyzed hydroxylation of both CODD and NODD, we investigated the reaction of PHD2 with NODD substrates in comparison with CODD for both HIF-1α and HIF-2α. Pre-steady-state reactions of PHD2 were initiated by rapid mixing of anaerobic PHD2·Fe(II)·2OG·HIF-α complexes with O2-saturated buffer at 5 °C. Reactions were initially observed using a photodiode array detector, and difference spectra (in comparison with the reaction with O2-free buffer) were subsequently analyzed.
FIGURE 5. Pre-steady-state kinetics of PHD2-catalyzed HIF-1/2α hydroxylation. […] B, stopped-flow kinetic traces at 520 nm showing absorbance changes in control experiments: Fe(II) only, mix of Fe(II) and 2OG, reaction of PHD2·Fe(II)·2OG complex with O2 in the absence of CODD; reaction of PHD2·Fe(II)·N-oxalylglycine (NOG)·CODD complex with O2. N-Oxalylglycine is an inhibitor of 2OG oxygenases. […] The kinetic traces represent the average of triplicate assays. E, HIF-1/2α peptide hydroxylation, as determined by MALDI-TOF-MS. Reactions were quenched with 1% CF3CO2H at defined time points.

Like-named read-outs stand apart in the source and are kept apart here.

T1 sequence (Q9NWT6 whole entry): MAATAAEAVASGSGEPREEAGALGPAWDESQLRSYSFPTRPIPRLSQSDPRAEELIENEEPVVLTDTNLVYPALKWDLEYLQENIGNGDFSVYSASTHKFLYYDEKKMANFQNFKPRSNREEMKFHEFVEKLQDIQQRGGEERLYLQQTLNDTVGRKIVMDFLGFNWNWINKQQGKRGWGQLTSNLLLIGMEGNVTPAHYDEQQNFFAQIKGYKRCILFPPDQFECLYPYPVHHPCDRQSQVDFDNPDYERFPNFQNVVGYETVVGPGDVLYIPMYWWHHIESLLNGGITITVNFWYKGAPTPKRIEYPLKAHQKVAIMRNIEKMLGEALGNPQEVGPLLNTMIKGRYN

On FIH [1], DESGLPQLTSYDCEVNAPI [CAD HIF-1α19-mer] returned a Rapid quench-flow kproduct of 0.013 ± 0.003 s⁻¹ and a Rapid quench-flow ksuccinate of 0.016 ± 0.004 s⁻¹. Also, the “Km^app(O2)” value at FIH [2] is “no difference”.
As usually defined, the Km is the substrate concentration at which the rate is half of its maximum. For the molecule “NLEVAEYLLEHGADVNAQDK [tnkrs-1_20-mer, 20-mer fragment of tankyrase-1, ARD substrate of FIH]”, on FIH [1], the Rapid quench-flow kproduct is 1.5 ± 0.1 s⁻¹ and the Rapid quench-flow ksuccinate came out at 1.0 ± 0.3 s⁻¹. Further, on FIH [1] (rapid quench-flow, 5 °C), the “product accumulation rate, fold faster than the reaction with HIF 35-mer substrates” value is recorded as roughly 10 fold. For the same molecule, at FIH [3], the “Stopped-flow, 500 nm (FIH) kfall phase” value was 16.7 ± 0.2 s⁻¹ and the “Stopped-flow, 500 nm (FIH) krise phase” value amounted to 0.4 ± 0.2 s⁻¹. In addition, the Km at FIH [4] (FIH with the named substrate, 2OG varied, read-out: Km^app(2OG)) came out at 370 ± 120 µM. Further, the “kcat^app” value on FIH [4] (FIH, MALDI-TOF-MS or LC-MS) was 0.8 ± 0.1 s⁻¹. Also, at FIH [4] (FIH, substrate varied, 2OG fixed, read-out: Km^app(peptide)), the Michaelis-Menten constant (Km) came out at 78 ± 11 µM.

B1: HIF-1α(344–503) NODD protein: recombinant HIF-1α(344–503) NODD protein, longer PHD2 substrate (protein, UniProt Q16665 344-503, looked up, fragment)
chain: GIIQHDLIFSLQQTECVLKPVESSDMKMTQLFTKVESEDTSSLFDKLKKEPDALTLLAPAAGDTIISLDFGSNDTETDDQQLEEVPLYNDVMLPSPNEKLQNINLAMSPLPTAETPKPLRSSADPALNQEVALKLEPNPESLELSFTMPQIQDQTPSPSD
Turning to B1, the “Stopped-flow, 520 nm (PHD2) kfall phase” value in the assay with PHD2 is “same kinetics”.

(Values after article PMC4528135, “Kinetic Investigations of the Role of Factor Inhibiting Hypoxia-inducible Factor (FIH) as an Oxygen Sensor” (The Journal of Biological Chemistry, 2015).)
